Test results: paper PMC5825229 (Molecular cell, 2017)
Where a chain is given by its changes, count along the chain named.

How the values were obtained:
Format in all cases: biochemical
[1] = target: T1, human MCU and EMRE reconstituted in yeast mitochondria (HsMCU/EMRE) (Homo sapiens, UniProt Q8NE86); experiment: aequorin Ca2+ uptake rate in isolated yeast mitochondria, Hill fit
T1 sequence (Q8NE86 51-351): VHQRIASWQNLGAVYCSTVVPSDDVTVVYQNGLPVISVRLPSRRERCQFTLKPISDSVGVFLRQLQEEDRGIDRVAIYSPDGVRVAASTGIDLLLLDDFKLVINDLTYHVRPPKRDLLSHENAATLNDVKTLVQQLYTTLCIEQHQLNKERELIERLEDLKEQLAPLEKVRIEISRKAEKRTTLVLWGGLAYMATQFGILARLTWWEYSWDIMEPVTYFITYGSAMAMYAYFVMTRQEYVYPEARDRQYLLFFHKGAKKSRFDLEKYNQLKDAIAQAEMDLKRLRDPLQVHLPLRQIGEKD
T1 sequence (Q9H4I9 53-107 partner): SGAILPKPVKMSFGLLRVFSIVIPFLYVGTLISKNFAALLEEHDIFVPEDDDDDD

[2] = target: T2, human MCU and EMRE reconstituted in yeast mitochondria (HsMCU/EMRE) (Homo sapiens, UniProt Q8NE86, D261A); experiment: aequorin peak Ca2+ in isolated yeast mitochondria, Hill fit
T2 sequence (Q8NE86 51-351 D261A): T1 sequence (Q8NE86 51-351) with D211A
T2 sequence (Q9H4I9 53-107 partner): T1 sequence (Q9H4I9 53-107 partner)

[3] = target: T3, MCU (native mitochondrial calcium uniporter of HEK293T mitoplasts and HeLa cells) (Homo sapiens, UniProt Q8NE86); experiment: whole-mitoplast patch clamp, HEK293T; settings: 1 mM bath Ca2+, -160 mV; bath (cytosolic) side, reversible
T3 sequence (Q8NE86 51-351): T1 sequence (Q8NE86 51-351)
T3 sequence (Q9H4I9 53-107 partner): T1 sequence (Q9H4I9 53-107 partner)

| SMILES | IC50 [1] | IC50 [2] | % reduction of MCU Ca2+ current at 10 μM [3] |
| --- | --- | --- | --- |
| Nc1ccc(NCCNCCO)c2c1C(=O)c1c(O)ccc(O)c1C2=O [impurity A] | 36 ± 0.2 µM | – | – |
| O=C1c2c(O)ccc(O)c2C(=O)c2c(NCCNCCO)ccc(NCCNCCO)c21 [mitoxantrone] | 8.3 ± 0.9 µM | 10.7 ± 1.4 µM | ~ 85% |
| NCCNc1ccc(NCCN)c2c1C(=O)c1ccncc1C2=O [pixantrone] | 15 ± 1 µM | 31.8 ± 6.5 µM | – |
